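Test compounds were applied to cells in 96-well plates for 48 hours at 5 doses. The concentration for 50% growth inhibition is given as GI50. At the TGI there is no net growth.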
How the values were obtained:
Assay in all cases: NCI-60 cell line screen, 48 h
NCI-H226 lung = tested on: NCI-H226 lung
TK-10 renal = tested on: TK-10 renal
ACHN renal = tested on: ACHN renal
MOLT-4 leukemia = tested on: MOLT-4 leukemia
A498 renal = tested on: A498 renal
MCF7 breast = tested on: MCF7 breast
NCI-H460 lung = tested on: NCI-H460 lung
HOP-62 NSCLC = tested on: HOP-62 NSCLC
MDA-MB-435 = tested on: MDA-MB-435
OVCAR-4 ovarian = tested on: OVCAR-4 ovarian
SF-539 CNS = tested on: SF-539 CNS
HOP-92 NSCLC = tested on: HOP-92 NSCLC
SK-MEL-28 melanoma = tested on: SK-MEL-28 melanoma
HCT-15 colon = tested on: HCT-15 colon
HL-60(TB) leukemia = tested on: HL-60(TB) leukemia
T-47D breast = tested on: T-47D breast
HT29 colon = tested on: HT29 colon
OVCAR-8 ovarian = tested on: OVCAR-8 ovarian
CCRF-CEM leukemia = tested on: CCRF-CEM leukemia
MDA-MB-231 breast = tested on: MDA-MB-231 breast
SK-MEL-2 melanoma = tested on: SK-MEL-2 melanoma
UACC-62 melanoma = tested on: UACC-62 melanoma
HCT-116 colon = tested on: HCT-116 colon
SF-295 CNS = tested on: SF-295 CNS
PC-3 prostate = tested on: PC-3 prostate
A549 NSCLC = tested on: A549 NSCLC
MALME-3M melanoma = tested on: MALME-3M melanoma
U251 CNS = tested on: U251 CNS
UO-31 renal = tested on: UO-31 renal
LOX IMVI melanoma = tested on: LOX IMVI melanoma
HS 578T breast = tested on: HS 578T breast
NCI-H522 lung = tested on: NCI-H522 lung
K-562 leukemia = tested on: K-562 leukemia
NCI/ADR-RES ovarian = tested on: NCI/ADR-RES ovarian
SNB-19 CNS = tested on: SNB-19 CNS
SNB-75 CNS = tested on: SNB-75 CNS
DU-145 prostate = tested on: DU-145 prostate
786-0 renal = tested on: 786-0 renal
UACC-257 melanoma = tested on: UACC-257 melanoma
BT-549 breast = tested on: BT-549 breast
M14 melanoma = tested on: M14 melanoma
COLO 205 colon = tested on: COLO 205 colon
SN12C renal = tested on: SN12C renal
NCI-H23 lung = tested on: NCI-H23 lung
IGROV1 ovarian = tested on: IGROV1 ovarian
OVCAR-5 ovarian = tested on: OVCAR-5 ovarian
SR leukemia = tested on: SR leukemia
RPMI-8226 leukemia = tested on: RPMI-8226 leukemia
OVCAR-3 ovarian = tested on: OVCAR-3 ovarian
CAKI-1 renal = tested on: CAKI-1 renal
HCC-2998 colon = tested on: HCC-2998 colon
SF-268 CNS = tested on: SF-268 CNS
SK-MEL-5 melanoma = tested on: SK-MEL-5 melanoma
KM12 colon = tested on: KM12 colon
SW-620 colon = tested on: SW-620 colon
SK-OV-3 ovarian = tested on: SK-OV-3 ovarian

Work on `Cc1c(C(N)=O)sc2nc(C)n(/N=c3\scc(-c4ccccc4)n3Cc3ccccc3)c(=O)c12` yielded a GI50 (NCI-H226 lung) of 3.72 µM, a TGI (NCI-H226 lung) of 67.9 µM and a GI50 (TK-10 renal) of 3.78 µM. For the same compound, the TGI (TK-10 renal) was > 100 µM, the GI50 (ACHN renal) was 2.86 µM and the TGI (ACHN renal) was > 100 µM. For the same compound, the GI50 (MOLT-4 leukemia) was 24.6 µM, the TGI (MOLT-4 leukemia) was > 100 µM and the GI50 (A498 renal) was 2.53 µM. For the same compound, the TGI (A498 renal) was 8.97 µM, the GI50 (MCF7 breast) was 2.92 µM and the TGI (MCF7 breast) was > 100 µM. For the same compound, the GI50 (NCI-H460 lung) was 2.65 µM, the TGI (NCI-H460 lung) was 7.34 µM and the GI50 (HOP-62 NSCLC) was 2.82 µM. The TGI (HOP-62 NSCLC) was 9.47 µM, the GI50 (MDA-MB-435) was 2.89 µM and the TGI (MDA-MB-435) was 12.5 µM. For the same compound, the GI50 (OVCAR-4 ovarian) was 2.5 µM, the TGI (OVCAR-4 ovarian) was > 100 µM and the GI50 (SF-539 CNS) was 4.02 µM. For the same compound, the TGI (SF-539 CNS) was > 100 µM, the GI50 (HOP-92 NSCLC) was 1.34 µM and the TGI (HOP-92 NSCLC) was 5.33 µM. For the same compound, the GI50 (SK-MEL-28 melanoma) was 3.56 µM, the TGI (SK-MEL-28 melanoma) was > 100 µM and the GI50 (HCT-15 colon) was 2.64 µM. The TGI (HCT-15 colon) was > 100 µM, the GI50 (HL-60(TB) leukemia) was 6.68 µM and the TGI (HL-60(TB) leukemia) was > 100 µM. The GI50 (T-47D breast) was 3.25 µM, the TGI (T-47D breast) was > 100 µM and the GI50 (HT29 colon) was 3.04 µM. For the same compound, the TGI (HT29 colon) was > 100 µM, the GI50 (OVCAR-8 ovarian) was 3.49 µM and the TGI (OVCAR-8 ovarian) was > 100 µM. The GI50 (CCRF-CEM leukemia) was 34.2 µM, the TGI (CCRF-CEM leukemia) was > 100 µM and the GI50 (MDA-MB-231 breast) was 3.28 µM. It also gave a TGI (MDA-MB-231 breast) of 8.41 µM, a GI50 (SK-MEL-2 melanoma) of 3.89 µM and a TGI (SK-MEL-2 melanoma) of 86.6 µM. For the same compound, the GI50 (UACC-62 melanoma) was 4.26 µM, the TGI (UACC-62 melanoma) was 83.2 µM and the GI50 (HCT-116 colon) was 2.13 µM. The TGI (HCT-116 colon) was 10.3 µM, the GI50 (SF-295 CNS) was 2.93 µM and the TGI (SF-295 CNS) was > 100 µM. The GI50 (PC-3 prostate) was 2.15 µM, the TGI (PC-3 prostate) was 8.31 µM and the GI50 (A549 NSCLC) was 3.79 µM. For the same compound, the TGI (A549 NSCLC) was > 100 µM, the GI50 (MALME-3M melanoma) was 2.18 µM and the TGI (MALME-3M melanoma) was > 100 µM. For the same compound, the GI50 (U251 CNS) was 3.32 µM, the TGI (U251 CNS) was > 100 µM and the GI50 (UO-31 renal) was 1.66 µM. For the same compound, the TGI (UO-31 renal) was 7 µM, the GI50 (LOX IMVI melanoma) was 3.54 µM and the TGI (LOX IMVI melanoma) was > 100 µM. For the same compound, the GI50 (HS 578T breast) was 3.85 µM, the TGI (HS 578T breast) was > 100 µM and the GI50 (NCI-H522 lung) was 1.73 µM. For the same compound, the TGI (NCI-H522 lung) was 7.23 µM, the GI50 (K-562 leukemia) was 8.89 µM and the TGI (K-562 leukemia) was > 100 µM. The GI50 (NCI/ADR-RES ovarian) was 2.9 µM, the TGI (NCI/ADR-RES ovarian) was 29.2 µM and the GI50 (SNB-19 CNS) was 4.8 µM. The TGI (SNB-19 CNS) was > 100 µM, the GI50 (SNB-75 CNS) was 2.8 µM and the TGI (SNB-75 CNS) was > 100 µM. The GI50 (DU-145 prostate) was 3.9 µM, the TGI (DU-145 prostate) was > 100 µM and the GI50 (786-0 renal) was 3.82 µM. The TGI (786-0 renal) was > 100 µM, the GI50 (UACC-257 melanoma) was 3.56 µM and the TGI (UACC-257 melanoma) was 24.3 µM. It also gave a GI50 (BT-549 breast) of 2.41 µM, a TGI (BT-549 breast) of 8.89 µM and a GI50 (M14 melanoma) of 3.88 µM. The TGI (M14 melanoma) was 84.5 µM, the GI50 (COLO 205 colon) was 2.39 µM and the TGI (COLO 205 colon) was 7.32 µM. The GI50 (SN12C renal) was 3.84 µM, the TGI (SN12C renal) was > 100 µM and the GI50 (NCI-H23 lung) was 3.12 µM. The TGI (NCI-H23 lung) was > 100 µM, the GI50 (IGROV1 ovarian) was 1.43 µM and the TGI (IGROV1 ovarian) was 6.31 µM. For the same compound, the GI50 (OVCAR-5 ovarian) was 4.33 µM, the TGI (OVCAR-5 ovarian) was > 100 µM and the GI50 (SR leukemia) was 5.74 µM. The TGI (SR leukemia) was > 100 µM, the GI50 (RPMI-8226 leukemia) was 13.9 µM and the TGI (RPMI-8226 leukemia) was > 100 µM. The GI50 (OVCAR-3 ovarian) was 2.28 µM, the TGI (OVCAR-3 ovarian) was 8.58 µM and the GI50 (CAKI-1 renal) was 3.35 µM. For the same compound, the TGI (CAKI-1 renal) was > 100 µM, the GI50 (HCC-2998 colon) was 3.05 µM and the TGI (HCC-2998 colon) was > 100 µM. The GI50 (SF-268 CNS) was 4 µM, the TGI (SF-268 CNS) was > 100 µM and the GI50 (SK-MEL-5 melanoma) was 1.81 µM. The TGI (SK-MEL-5 melanoma) was 3.75 µM, the GI50 (KM12 colon) was 3.37 µM and the TGI (KM12 colon) was > 100 µM. The GI50 (SW-620 colon) was 3.16 µM, the TGI (SW-620 colon) was > 100 µM and the GI50 (SK-OV-3 ovarian) was 4.51 µM. The TGI (SK-OV-3 ovarian) was > 100 µM.
